Data published in patent publication US8541002B2, “Vaccine for treatment and prevention of herpes simplex virus infection” (Agenus Inc., priority 2003, dated 2013).
Where no end group is shown, it is not given here.

Experiment: Turbidity assay for solubility of the peptides
Type: physicochemical
Conditions: solubility of the antigenic peptides in water or Dimethyl Sulfoxide (DMSO)
Experimental: A number of antigenic peptides of the invention were synthesized by chemical synthesis as described in Section 5.1.1.
A turbidity assay was used to assess the solubility of the peptides. Turbidity assays used either a Varian Cary double-beam spectrophotometer, or a Molecular Devices Spectromax absorbance plate reader (for high throughput experiments). The spectrophotometer assay read every 2 nm between 340 nm and 360 nm, and averaged the values. Samples were analyzed in duplicate using a quartz micro-cuvette that holds about 200 uL. The plate reader assay used a 96-well plate format that read every 4 nm between 340 nm and 360 nm and averaged those values. Samples in this assay were run in triplicate.

Molecule | Solubility
VNSAETNTHGLAYDVPEGIRRHLRNPKIRRAFTEQ [UL13-2] | water
TQDTACVHGELLARKRERFAAVINRFLDLHQILRG [UL33-2] | water
SSDVPSVALLLFPNGTVIHLLAFDTLPIATIAPGF [UL22-3] | DMSO
CSCC[C@H](NC(=O)[C@@H]1CCCN1C(=O)CNC(=O)[C@H](C)NC(=O)CNC(=O)[C@H](CCCNC(=N)N)NC(=O)[C@H](CCCNC(=N)N)NC(=O)[C@@H](N)Cc1ccccc1)C(=O)N[C@@H](CCCNC(=N)N)C(=O)N[C@@H](C)C(=O)N[C@@H](CCCNC(=N)N)C(=O)N1CCC[C@H]1C(=O)N[C@@H](CCCNC(=N)N)C(=O)NCC(=O)N[C@@H](CCC(=O)O)C(=O)N[C@H](C(=O)N[C@@H](CCCNC(=N)N)C(=O)N[C@@H](Cc1ccccc1)C(=O)N[C@@H](CC(C)C)C(=O)N[C@@H](Cc1c[nH]cn1)C(=O)N[C@@H](Cc1ccc(O)cc1)C(=O)N[C@@H](CC(=O)O)C(=O)N[C@@H](CCC(=O)O)C(=O)N[C@@H](C)C(=O)NCC(=O)N[C@@H](Cc1ccc(O)cc1)C(=O)N[C@@H](C)C(=O)N[C@@H](CC(C)C)C(=O)N[C@@H](Cc1ccc(O)cc1)C(=O)N[C@@H](CCCNC(=N)N)C(=O)N[C@@H](CC(=O)O)C(=O)N[C@@H](CO)C(=O)N[C@@H](CO)C(=O)N[C@@H](CO)C(=O)N[C@@H](CC(=O)O)C(=O)O)C(C)C [UL49-1] | water
GPGASPRLYSVVGPLGRQRLIIEELTLETQGMYYW [UL44-1] | water
LSGIAVRLCYIAVVAGVVLVALRYEQEIQRRLFDL [UL53-2] | DMSO
CSCC[C@H](NC(=O)[C@H](CCCNC(=N)N)NC(=O)[C@H](Cc1c[nH]cn1)NC(=O)[C@@H](NC(=O)[C@H](CC(C)C)NC(=O)[C@H](CC(C)C)NC(=O)CNC(=O)[C@@H]1CCCN1C(=O)[C@H](CC(C)C)NC(=O)[C@H](CC(N)=O)NC(=O)[C@H](CCC(=O)O)NC(=O)[C@H](C)NC(=O)[C@H](CC(C)C)NC(=O)[C@H](CC(C)C)NC(=O)[C@H](C)NC(=O)[C@@H](NC(=O)[C@H](CCC(=O)O)NC(=O)[C@@H]1CCCN1C(=O)[C@@H](N)CC(C)C)[C@@H](C)O)C(C)C)C(=O)N[C@@H](C)C(=O)N[C@H](C(=O)N[C@@H](C)C(=O)N[C@@H](CC(C)C)C(=O)N1CCC[C@H]1C(=O)N[C@@H](CCC(=O)O)C(=O)N[C@H](C(=O)N1CCC[C@H]1C(=O)N[C@@H](CCC(=O)O)C(=O)N[C@@H](C)C(=O)N[C@@H](C)C(=O)N[C@@H](Cc1ccccc1)C(=O)N[C@@H](CCCNC(=N)N)C(=O)N[C@@H](CCC(=O)O)C(=O)N[C@@H](CCSC)C(=O)N[C@@H](CC(=O)O)C(=O)O)[C@@H](C)O)C(C)C [UL37-1] | DMSO
CC[C@H](C)[C@H](NC(=O)[C@H](CO)NC(=O)[C@H](CC(=O)O)NC(=O)[C@@H](NC(=O)[C@@H](NC(=O)[C@@H](NC(=O)CNC(=O)[C@H](CCC(N)=O)NC(=O)[C@H](CCC(N)=O)NC(=O)[C@H](Cc1ccc(O)cc1)NC(=O)[C@H](C)NC(=O)[C@H](CCCCN)NC(=O)[C@@H](N)CO)C(C)C)[C@@H](C)O)C(C)C)C(=O)NCC(=O)N[C@@H](CCSC)C(=O)N[C@@H](CC(C)C)C(=O)N1CCC[C@H]1C(=O)N[C@@H](CCCNC(=N)N)C(=O)N[C@@H](Cc1ccccc1)C(=O)N[C@H](C(=O)N1CCC[C@H]1C(=O)N[C@@H](CCC(=O)O)C(=O)N[C@@H](CC(N)=O)C(=O)N[C@@H](CCC(N)=O)C(=O)N[C@@H](CCCNC(=N)N)C(=O)N[C@H](C(=O)N[C@H](C(=O)N[C@@H](C)C(=O)N[C@@H](CC(C)C)C(=O)N[C@@H](Cc1ccc(O)cc1)C(=O)N[C@@H](CO)C(=O)N[C@@H](CC(C)C)C(=O)N[C@@H](CCCCN)C(=O)N[C@H](C(=O)N[C@@H](C)C(=O)O)[C@@H](C)CC)C(C)C)[C@@H](C)O)[C@@H](C)CC [US06-3] | water
AAGKRGDSGLLRVCAALSIPKPSEAVRPSRIPRAP [US11-2] | water
VTTAEFPRDPGQLLYIPKTYLLGRPRNASLPELPE [UL22-1] | water
PQPPLPQPPLPQPPLPQPPLPPVTRTLTPQSRDSV [UL36-3] | water
ATYLLNYAGRIVSSVFLQYPYTKITRLLCELSVQR [UL53-1] | DMSO
